In patent US20250228239A1, “MOLECULES HAVING PESTICIDAL UTILITY, AND INTERMEDIATES, COMPOSITIONS, AND PROCESSES, RELATED THERETO” (priority 2024, published 2025):
Read-outs that look alike come from different tables or passages of the source.

Experiments:
Type in all cases: in vivo
[1] = test system: Beet Armyworm (Spodoptera exigua, LAPHEG); experiment: Bioassays on Beet Armyworm (BAW), 128-well diet tray assay; settings: Spodoptera exigua, Beet Armyworm
How it was run: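 Mortality of second-instar larvae (1–5/well) on artificial diet treated with 50 μg/cm^2 compound, read after 5–7 days at 25° C.; values are means of eight wells.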

[2] = test system: Cabbage Looper (Trichoplusia ni, TRIPNI); experiment: Bioassays on Cabbage Looper (CL), 128-well diet tray assay; settings: Trichoplusia ni, Cabbage Looper
How it was run: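 Test molecule was dissolved in 90:10 acetone-water, applied to artificial diet at 50 μg/cm^2 and allowed to dry. Second-instar larvae were then added, one to five per well, and trays held at 25° C for five to seven days before mortality was scored and averaged.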

[3] = test system: Yellow Fever Mosquito (Aedes aegypti, AEDSAE); settings: Yellow Fever Mosquito; for YFM: rating class; for YFM rating: Table ABC / ABC-DP rating
How it was run: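 Compounds from DMSO master plates (4000 ppm stock) diluted in 90:10 water/acetone, then dispensed into six replicate plates and infested with ~1-day-old Aedes aegypti larvae in liver-powder water. Held covered at room temperature for 3 days; each well scored for larval mortality and graded on a rating scale.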

[4] = Table ABC / ABC-DP rating, read-out: BAW rating
[5] = Table ABC / ABC-DP rating, read-out: CL rating

| SMILES | pest or weed control at 50 µg/cm2 ([1]; rating class, read-out: BAW) [%] | pest or weed control at 50 µg/cm2 ([2]; rating class, read-out: CL) [%] | YFM [3] | pest or weed control at 50 µg/cm2 [1, 4] [%] | pest or weed control at 50 µg/cm2 [2, 5] [%] | YFM rating [3] |
| --- | --- | --- | --- | --- | --- | --- |
| O=C(Nc1ccc(NC(=O)C(F)(F)F)c(C(F)(F)F)c1)c1cc(NC(=O)[C@H]2[C@H](c3ccc(F)c(Cl)c3)C2(Cl)Cl)ccc1Cl (relative stereo) [F1393, trans-2-Chloro-5-(2,2-dichloro-3-(3-chloro-4-fluorophenyl)cyclopropane-1-carboxamido)-N-(4-(2,2,2-trifluoroacetamido)-3-(trifluoromethyl)phenyl)benzamide] | 50 to 100 | 50 to 100 | A (80–100) | – | – | – |
| Nc1c(F)ccc(NC(=O)c2cc(NC(=O)[C@H]3[C@H](c4ccc(Br)cc4)C3(Cl)Cl)ccc2Cl)c1F (relative stereo) [F1591, trans-N-(3-Amino-2,4-difluorophenyl)-5-(3-(4-bromophenyl)-2,2-dichlorocyclopropane-1-carboxamido)-2-chlorobenzamide] | 50 to 100 | 50 to 100 | A (80–100) | – | – | – |
| Nc1c(F)ccc(NC(=O)c2cc(NC(=O)[C@H]3[C@H](c4ccc(F)cc4)C3(Cl)Cl)ccc2Cl)c1F (relative stereo) [F1592, trans-N-(3-Amino-2,4-difluorophenyl)-2-chloro-5-(2,2-dichloro-3-(4-fluorophenyl)cyclopropane-1-carboxamido)benzamide] | 50 to 100 | 50 to 100 | A (80–100) | – | – | – |
| Nc1c(F)ccc(NC(=O)c2cc(NC(=O)[C@H]3[C@H](c4cccc(Br)c4)C3(Cl)Cl)ccc2Cl)c1F (relative stereo) [F1594, trans-N-(3-Amino-2,4-difluorophenyl)-5-(3-(3-bromophenyl)-2,2-dichlorocyclopropane-1-carboxamido)-2-chlorobenzamide] | 50 to 100 | 50 to 100 | A (80–100) | – | – | – |
| Nc1c(F)ccc(NC(=O)c2cc(NC(=O)[C@H]3[C@H](c4cccc(Cl)c4)C3(Cl)Cl)ccc2Cl)c1F (relative stereo) [F1595, trans-N-(3-Amino-2,4-difluorophenyl)-2-chloro-5-(2,2-dichloro-3-(3-chlorophenyl)cyclopropane-1-carboxamido)benzamide] | 50 to 100 | 50 to 100 | A (80–100) | – | – | – |
| Nc1c(F)ccc(NC(=O)c2cc(NC(=O)[C@H]3[C@H](c4cccc(F)c4)C3(Cl)Cl)ccc2Cl)c1F (relative stereo) [F1596, trans-N-(3-Amino-2,4-difluorophenyl)-2-chloro-5-(2,2-dichloro-3-(3-fluorophenyl)cyclopropane-1-carboxamido)benzamide] | 50 to 100 | 50 to 100 | A (80–100) | – | – | – |
| O=C(Nc1ccc(F)c(NC(=O)C(F)F)c1F)c1cc(NC(=O)[C@H]2[C@H](c3ccc(Br)cc3)C2(Cl)Cl)ccc1Cl (relative stereo) [F1597, trans-5-(3-(4-Bromophenyl)-2,2-dichlorocyclopropane-1-carboxamido)-2-chloro-N-(3-(2,2-difluoroacetamido)-2,4-difluorophenyl)benzamide] | 50 to 100 | 50 to 100 | A (80–100) | – | – | – |
| O=C(Nc1ccc(F)c(NC(=O)C(F)F)c1F)c1cc(NC(=O)[C@H]2[C@H](c3ccc(Cl)cc3)C2(Cl)Cl)ccc1Cl (relative stereo) [F1599, trans-2-Chloro-5-(2,2-dichloro-3-(4-chlorophenyl)cyclopropane-1-carboxamido)-N-(3-(2,2-difluoroacetamido)-2,4-difluorophenyl)benzamide] | 50 to 100 | 50 to 100 | A (80–100) | – | – | – |
| O=C(Nc1ccc(F)c(NC(=O)C(F)F)c1F)c1cc(NC(=O)[C@H]2[C@H](c3cccc(Br)c3)C2(Cl)Cl)ccc1Cl (relative stereo) [F1600, trans-5-(3-(3-Bromophenyl)-2,2-dichlorocyclopropane-1-carboxamido)-2-chloro-N-(3-(2,2-difluoroacetamido)-2,4-difluorophenyl)benzamide] | 50 to 100 | 50 to 100 | A (80–100) | – | – | – |
| O=C(Nc1ccc(F)c(NC(=O)C(F)F)c1F)c1cc(NC(=O)[C@H]2[C@H](c3cccc(Cl)c3)C2(Cl)Cl)ccc1Cl (relative stereo) [F1601, trans-2-Chloro-5-(2,2-dichloro-3-(3-chlorophenyl)cyclopropane-1-carboxamido)-N-(3-(2,2-difluoroacetamido)-2,4-difluorophenyl)benzamide] | 50 to 100 | 50 to 100 | A (80–100) | – | – | – |
| O=C(Nc1ccc(F)c(NC(=O)C(F)F)c1F)c1cc(NC(=O)[C@H]2[C@H](c3cccc(F)c3)C2(Cl)Cl)ccc1Cl (relative stereo) [F1602, trans-2-Chloro-5-(2,2-dichloro-3-(3-fluorophenyl)cyclopropane-1-carboxamido)-N-(3-(2,2-difluoroacetamido)-2,4-difluorophenyl)benzamide] | 50 to 100 | 50 to 100 | A (80–100) | – | – | – |
| O=C(Nc1ccc(F)c(NC(=O)C(F)F)c1F)c1cc(NC(=O)[C@H]2[C@H](c3cc(Cl)cc(Br)c3)C2(Cl)Cl)ccc1Cl (relative stereo) [F1618, trans-5-(3-(3-Bromo-5-chlorophenyl)-2,2-dichlorocyclopropane-1-carboxamido)-2-chloro-N-(3-(2,2-difluoroacetamido)-2,4-difluorophenyl)benzamide] | 50 to 100 | 50 to 100 | A (80–100) | – | – | – |
| CC(=O)Nc1cc(F)c(F)cc1NC(=O)c1cc(NC(=O)[C@H]2[C@H](c3cc(Cl)cc(Cl)c3)C2(Cl)Cl)ccc1Cl (relative stereo) [F1634, trans-N-(2-Acetamido-4,5-difluorophenyl)-2-chloro-5-(2,2-dichloro-3-(3,5-dichlorophenyl)cyclopropane-1-carboxamido)benzamide] | 50 to 100 | 50 to 100 | B (More than 0 – Less than 80) | – | – | – |
| CC(=O)Nc1cc(F)ccc1NC(=O)c1cc(NC(=O)[C@H]2[C@H](c3cc(Cl)cc(Cl)c3)C2(Cl)Cl)ccc1Cl (relative stereo) [F1637, trans-N-(2-Acetamido-4-fluorophenyl)-2-chloro-5-(2,2-dichloro-3-(3,5-dichlorophenyl)cyclopropane-1-carboxamido)benzamide] | 50 to 100 | 50 to 100 | B (More than 0 – Less than 80) | – | – | – |
| Nc1c(F)ccc(NC(=O)c2cc(NC(=O)[C@H]3[C@H](c4cc(C(F)(F)F)cc(C(F)(F)F)c4)C3(Cl)Cl)ccc2Cl)c1F (relative stereo) [F1791, trans-N-(3-Amino-2,4-difluorophenyl)-5-(3-(3,5-bis(trifluoromethyl)phenyl)-2,2-dichlorocyclopropane-1-carboxamido)-2-chlorobenzamide] | – | – | – | 50 to 100 | 50 to 100 | A (80–100) |
| O=C(Nc1ccc(F)c(NC(=O)C(F)(F)F)c1F)c1cc(NC(=O)[C@H]2[C@H](c3cc(C(F)(F)F)cc(C(F)(F)F)c3)C2(Cl)Cl)ccc1Cl (relative stereo) [F1801, trans-5-(3-(3,5-bis(Trifluoromethyl)phenyl)-2,2-dichlorocyclopropane-1-carboxamido)-2-chloro-N-(2,4-difluoro-3-(2,2,2-trifluoroacetamido)phenyl)benzamide] | – | – | – | 50 to 100 | 50 to 100 | A (80–100) |
| O=C(Nc1ccc(F)c(NC(=O)C(F)F)c1F)c1cc(NC(=O)[C@H]2[C@H](c3cc(C(F)(F)F)cc(C(F)(F)F)c3)C2(Cl)Cl)ccc1Cl (relative stereo) [F1802, trans-5-(3-(3,5-bis(Trifluoromethyl)phenyl)-2,2-dichlorocyclopropane-1-carboxamido)-2-chloro-N-(3-(2,2-difluoroacetamido)-2,4-difluorophenyl)benzamide] | – | – | – | 50 to 100 | 50 to 100 | A (80–100) |
| CC(=O)Nc1c(F)ccc(NC(=O)c2cc(NC(=O)[C@H]3[C@H](c4cc(C(F)(F)F)cc(C(F)(F)F)c4)C3(Cl)Cl)ccc2Cl)c1F (relative stereo) [F1803, trans-N-(3-Acetamido-2,4-difluorophenyl)-5-(3-(3,5-bis(trifluoromethyl)phenyl)-2,2-dichlorocyclopropane-1-carboxamido)-2-chlorobenzamide] | – | – | – | 50 to 100 | 50 to 100 | A (80–100) |
| O=C(COC(F)(F)F)Nc1c(F)ccc(NC(=O)c2cc(NC(=O)[C@H]3[C@H](c4cc(C(F)(F)F)cc(C(F)(F)F)c4)C3(Cl)Cl)ccc2Cl)c1F (relative stereo) [F1804, trans-5-(3-(3,5-bis(Trifluoromethyl)phenyl)-2,2-dichlorocyclopropane-1-carboxamido)-2-chloro-N-(2,4-difluoro-3-(2-(trifluoromethoxy)acetamido)phenyl)benzamide] | – | – | – | 50 to 100 | 50 to 100 | A (80–100) |
